Results on four molecules are retold here after US20050096323A1, “Diketopiperazine derivatives to inhibit thrombin” (NovoScience Pharma Inc., priority 1999, published 2005).

Broadly, the Ki is the dissociation constant of the complex between target and ligand, obtained from inhibition or displacement.

One assay addresses T1, urokinase (Homo sapiens, UniProt P00749).
T1 construct: purchased Sigma
Briefly: Urokinase inhibition constant (Ki), fluorogenic substrate assay. The following applies: substrate N-Cbz-Gly-Gly-Arg-AMC. The format is biochemical. As for the experimental part:
(§1) The activity and selectivity of the present invention can be identified by determination of the inhibition constant (Ki) for serine proteases such thrombin and trypsin and fibrinolytic enzymes such as urokinase, plasmin and tissue plasminogen activator (tPA). All of enzymes are purchased from Sigma. The general assay conditions are as follows. The fluorogenic substrates are dissolved in DMSO and diluted using assay buffer containing 50 mM Tris.HCl (pH 7.8 at 25° C.), 0.1 M NaCl and 0.1% polyethylene glycol 8000 (PEG 8000). […] The assays were conducted using Hitachi F2500 spectrophotometer under ambient temperature and at the excitation and emission wavelengths of 383 nm and 455 nm, respectively. The typical progressive data of the enzymatic assays are shown in FIGS. 1-3, and the determination of inhibition constant (Ki) is shown in FIG. 4.

Another assay has as its target T2, plasmin (Homo sapiens, UniProt P00747).
T2 construct: purchased Sigma
Briefly: Plasmin inhibition constant (Ki), fluorogenic substrate assay. It counts as biochemical. The following applies: substrate D-Ala-Leu-Lys-AMC. Here is the method:
as §1

The target in assay [1] is T3, tissue plasminogen activator (tPA) (Homo sapiens, UniProt P00750).
T3 construct: purchased Sigma
As to the kind of experiment: tPA inhibition constant (Ki), fluorogenic substrate assay. The format is biochemical. The following applies: substrate Boc-L-(p-F) FPR-ANSNH-C2H5. Here is the method:
as §1

Another assay deals with ICR mice. As to the kind of experiment: Clotting time (CT) of mice whole blood after administration. The format is in vivo.
In assay [2] the test system is SD rats. As to the kind of experiment: RT, TT, PT, APTT and FIB in rat plasma after administration. The arrangement: FIB (Fibrillation) / RT (Clot Retraction Time) / TT (Thrombin Time): unit not given here. It counts as in vivo. Conditions: 2.5 mg/kg i.v. As for the experimental part: Blood was taken at 0.5 h and 1.5 h after i.v. injection and at 1 h and 3 h after i.g. and plasma RT,TT,PT,APTT and FIB were determined.

For assay [3], the system named is SD rats. As to the kind of experiment: Weight of deep vein thrombosis (inferior vena cava thrombi) in rats. It counts as in vivo, rat. The following applies: 1.25 mg/kg i.v., 4 hours.
Procedure: The drug was administered immediately after operation and, 4 hours later, the thrombi were collected and weighted.
Assay [4] relates to SD rats. As to the kind of experiment: Acute myocardial infarction by coronary artery ligation in rats.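 As to CK (u/ml): blood collected at end of 6 h (i.v.) or 8 h (intraduodenal) ECG observation.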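 As to LDH (u/ml): blood collected at end of 6 h (i.v.) or 8 h (intraduodenal) ECG observation.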 It counts as in vivo, rat. The following applies: for S point in electrocardiogram / T wave in electrocardiogram: reference drug 0.125 mg/kg i.v.
Procedure: The drugs were administered 8 to 10 min after the coronary artery was ligated.
The target in a further assay is T4, thrombin (Homo sapiens, UniProt P00734).
T4 construct: purchased Sigma
As to the kind of experiment: Thrombin inhibition constant (Ki), fluorogenic substrate assay. Conditions: Table II, method of example 9. The format is biochemical.

The mark [5] stands for this setting: 0 min after ligation (before drug).
Setting [6] is: serum, reference drug, 0.125 mg/kg i.v.

T2 sequence (P00747 581-810 limits assumed, species assumed): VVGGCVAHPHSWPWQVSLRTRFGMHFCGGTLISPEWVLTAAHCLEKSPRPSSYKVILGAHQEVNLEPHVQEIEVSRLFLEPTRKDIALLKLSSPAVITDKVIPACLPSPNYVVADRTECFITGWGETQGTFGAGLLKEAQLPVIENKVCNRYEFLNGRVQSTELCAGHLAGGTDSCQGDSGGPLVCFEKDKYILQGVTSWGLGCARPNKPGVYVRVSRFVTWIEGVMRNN
T2 sequence (P00747 97-580 partner limits assumed, species assumed): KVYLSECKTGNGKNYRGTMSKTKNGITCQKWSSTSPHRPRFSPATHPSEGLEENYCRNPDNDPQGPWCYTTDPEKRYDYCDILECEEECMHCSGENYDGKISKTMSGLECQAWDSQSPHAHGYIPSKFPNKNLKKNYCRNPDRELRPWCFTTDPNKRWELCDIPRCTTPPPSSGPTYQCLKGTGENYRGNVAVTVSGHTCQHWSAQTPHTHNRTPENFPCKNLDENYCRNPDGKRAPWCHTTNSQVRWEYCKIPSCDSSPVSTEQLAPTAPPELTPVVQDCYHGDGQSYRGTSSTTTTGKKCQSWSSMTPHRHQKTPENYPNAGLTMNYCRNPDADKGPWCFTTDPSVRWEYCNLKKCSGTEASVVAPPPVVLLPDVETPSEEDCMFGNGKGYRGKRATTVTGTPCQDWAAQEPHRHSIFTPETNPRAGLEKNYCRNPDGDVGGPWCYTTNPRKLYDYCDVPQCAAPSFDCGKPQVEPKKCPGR
T3 sequence (P00750 36-562, species assumed): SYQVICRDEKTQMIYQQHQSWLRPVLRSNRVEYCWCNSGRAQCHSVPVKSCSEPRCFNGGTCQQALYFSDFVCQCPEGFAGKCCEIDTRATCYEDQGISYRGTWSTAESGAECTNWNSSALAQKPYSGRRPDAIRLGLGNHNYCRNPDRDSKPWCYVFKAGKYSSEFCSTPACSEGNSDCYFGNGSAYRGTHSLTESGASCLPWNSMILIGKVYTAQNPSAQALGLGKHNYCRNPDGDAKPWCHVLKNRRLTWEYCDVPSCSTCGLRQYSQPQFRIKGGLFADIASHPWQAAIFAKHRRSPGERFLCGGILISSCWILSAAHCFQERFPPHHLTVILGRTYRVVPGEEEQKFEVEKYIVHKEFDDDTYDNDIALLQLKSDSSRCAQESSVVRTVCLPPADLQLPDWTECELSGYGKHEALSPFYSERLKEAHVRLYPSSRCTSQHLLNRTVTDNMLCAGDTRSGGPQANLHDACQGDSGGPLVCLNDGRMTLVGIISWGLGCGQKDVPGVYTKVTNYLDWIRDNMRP
Procedure for ICR mice: Blood samples were collected using the capillary method 0.5 h and 1.5 h after i.v. injections and 1 h and 3 h after i.g. and clotting time of whole blood was measured.

As for `CC1CNc2c(cccc2S(=O)(=O)N[C@@H](CCCNC(=N)N)C(=O)N2CC[C@@H](C)C[C@@H]2C(=O)O)C1` (stereo partly shown) [Argatroban, reference compound], the figures for the inhibition constant (Ki) (on urokinase; on plasmin; in assay [1]) were 999 µM, 372 µM and 777 µM, respectively. Also, the “CT (clotting time of whole blood)” value with ICR mice (2.5 mg/kg i.v. group, before administration) is reported as 133.28 ± 26.21; in the assay with ICR mice (2.5 mg/kg i.v., 0.5 h), 170.33 ± 28.34; with ICR mice (2.5 mg/kg i.v., 1.5 h), 156.11 ± 32.08. For the same molecule, the “APTT (Activated Partial Prothromboplastin Time)” value was 37.9 ± 10.2 in the assay on SD rats [2] (0.5 h) and 30.1 ± 6.5 in the assay on SD rats [2] (1.5 h). For the same molecule, the “PT (Prothrombin Time)” value in the assay with SD rats [2] (0.5 h) amounted to 37.9 ± 8.6; with SD rats [2] (1.5 h), 29.5 ± 8.5. Besides, the “RT (Clot Retraction Time)” value with SD rats [2] (0.5 h) is recorded as 91.2 ± 15.0; in the assay with SD rats [2] (1.5 h), 77.4 ± 10.6. In addition, the “TT (Thrombin Time)” value in the assay with SD rats [2] (0.5 h) worked out at 72.9 ± 20.1; with SD rats [2] (1.5 h) it was 50.4 ± 12.3. Besides, the “FIB (Fibrillation)” value in the assay with SD rats [2] (1.5 h) stood at 4.0 ± 0.9. Also, the “Thrombi (mg) Dry weight” value in the assay on SD rats [3] is 6.26 ± 3.72 mg. Further, in the assay on SD rats [3], the “Thrombi (mg) Wet weight” value is listed as 18.04 ± 8.99 mg. Further, the “S point in electrocardiogram” value in the assay with SD rats [4] (setting [5]) was 0.35 ± 0.16; in the assay with SD rats [4] (10 min after ligation), 0.36 ± 0.20; in the assay on SD rats [4] (30 min after ligation), 0.26 ± 0.15; in the assay on SD rats [4] (6 h after ligation), 0.19 ± 0.10. The “T wave in electrocardiogram” value turned out to be 0.23 ± 0.16 in the assay with SD rats [4] (setting [5]), 0.21 ± 0.18 in the assay with SD rats [4] (10 min after ligation), 0.16 ± 0.18 with SD rats [4] (30 min after ligation) and 0.11 ± 0.10 in the assay with SD rats [4] (6 h after ligation). The “Infarction Area (%)” value in the assay on SD rats [4] (reference drug, 0.125 mg/kg i.v.) came to 23.55 ± 7.95 %. Also, the “CK (u/ml)” value in the assay on SD rats [4] (setting [6]) worked out at 55.92 ± 11.46 u/ml. Moreover, the “LDH (u/ml)” value in the assay with SD rats [4] (setting [6]) was 6259.5 ± 308.6 u/ml.

At thrombin, `CCC1CCN2C(=O)C(CCCNC(=N)N)N(S(=O)(=O)c3cccc4c3NCC(C)C4)C(=O)C2C1` (stereo not shown) [compound 2] yielded a Ki of 0.061 µM.

Regarding `CC1CNc2c(cccc2S(=O)(=O)N2C(=O)C3CC(c4ccccc4)CCN3C(=O)C2CCCNC(=N)N)C1` (stereo not shown) [compound 3], the Ki at thrombin was 0.91 µM.

The molecule `CC1CNc2c(cccc2S(=O)(=O)N2C(=O)C3CC(C(C)(C)C)CCN3C(=O)C2CCCNC(=N)N)C1` (stereo not shown) [compound 4] came in with a Ki on thrombin of 1.58 µM.
